Test results: ChEMBL document CHEMBL4808220, “Discovery of novel pyrazolopyrimidine derivatives as potent mTOR/HDAC bi-functional inhibitors via pharmacophore-merging strategy” (Bioorg Med Chem Lett, 2021)
The source made the active and inactive calls. No cut-off for these calls is given here.

Assays:
[1] = target: T1, Serine/threonine-protein kinase mTOR (Homo sapiens, UniProt P42345); assay: Inhibition of mTOR (unknown origin)
Histone deacetylase 1 = Histone deacetylase 1 (Homo sapiens, UniProt Q13547); assay: Inhibition of HDAC1 (unknown origin)
Histone deacetylase 1, sequence (Q13547 whole entry): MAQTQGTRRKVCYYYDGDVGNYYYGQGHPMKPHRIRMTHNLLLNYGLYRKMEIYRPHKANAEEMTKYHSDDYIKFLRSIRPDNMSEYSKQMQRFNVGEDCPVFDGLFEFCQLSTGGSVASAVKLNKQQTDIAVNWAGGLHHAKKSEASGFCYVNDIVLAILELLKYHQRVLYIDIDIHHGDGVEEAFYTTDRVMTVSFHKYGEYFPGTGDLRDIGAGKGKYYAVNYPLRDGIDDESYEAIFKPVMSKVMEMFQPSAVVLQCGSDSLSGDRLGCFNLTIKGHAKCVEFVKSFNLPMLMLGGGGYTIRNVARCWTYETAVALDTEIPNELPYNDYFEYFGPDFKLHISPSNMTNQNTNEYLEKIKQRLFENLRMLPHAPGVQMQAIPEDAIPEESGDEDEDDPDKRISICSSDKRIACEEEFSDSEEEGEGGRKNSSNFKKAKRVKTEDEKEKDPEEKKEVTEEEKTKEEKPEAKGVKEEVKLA

MV4-11 = assay: Antiproliferative activity against human MV4-11 cells harboring FLT3-ITD mutant assessed as reduction in cell viability; type: functional, cell-based
[2] = target: T1, Serine/threonine-protein kinase mTOR; assay: Inhibition of mTOR complexes in human MV4-11 cells assessed as suppression of phosphorylation of S6 ribosomal at Ser235/236 residues at 300 nM by Western blot analysis relative to control; type: cell-based
[3] = target: T2, Histone deacetylase (Homo sapiens) (UniProt Q13547+O15379+Q9UBN7+Q92769+Q9UQL6+Q8WUI4+Q9BY41+Q96DB2+P56524+Q9UKV0+Q969S8); assay: Inhibition of HDAC in human MV4-11 cells assessed as increase in acetylation of alpha-tubulin at Lys40 residue by Western blot analysis relative to control; type: cell-based
[4] = target: T2, Histone deacetylase (Homo sapiens); assay: Inhibition of HDAC in human MV4-11 cells assessed as increase in acetylation of histone H3 (ac-H3 K9) by Western blot analysis relative to control; type: cell-based
Histone deacetylase 8 = target: T3, Histone deacetylase 8 (Homo sapiens, UniProt Q9BY41); assay: Inhibition of HDAC8 (unknown origin)
T3 sequence (Q9BY41 whole entry): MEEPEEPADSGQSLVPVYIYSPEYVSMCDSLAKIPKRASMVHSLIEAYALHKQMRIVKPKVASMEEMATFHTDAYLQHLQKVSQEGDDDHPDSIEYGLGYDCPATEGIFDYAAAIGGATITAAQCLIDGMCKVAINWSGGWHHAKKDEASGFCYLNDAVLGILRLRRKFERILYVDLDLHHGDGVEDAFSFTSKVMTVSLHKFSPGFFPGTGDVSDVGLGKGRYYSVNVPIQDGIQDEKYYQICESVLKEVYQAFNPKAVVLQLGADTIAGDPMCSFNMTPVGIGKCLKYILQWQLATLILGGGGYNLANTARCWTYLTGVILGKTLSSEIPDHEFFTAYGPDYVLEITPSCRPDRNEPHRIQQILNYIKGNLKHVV

Histone deacetylase 11 = target: T4, Histone deacetylase 11 (Homo sapiens, UniProt Q96DB2); assay: Inhibition of HDAC11 (unknown origin)
T4 sequence (Q96DB2 whole entry): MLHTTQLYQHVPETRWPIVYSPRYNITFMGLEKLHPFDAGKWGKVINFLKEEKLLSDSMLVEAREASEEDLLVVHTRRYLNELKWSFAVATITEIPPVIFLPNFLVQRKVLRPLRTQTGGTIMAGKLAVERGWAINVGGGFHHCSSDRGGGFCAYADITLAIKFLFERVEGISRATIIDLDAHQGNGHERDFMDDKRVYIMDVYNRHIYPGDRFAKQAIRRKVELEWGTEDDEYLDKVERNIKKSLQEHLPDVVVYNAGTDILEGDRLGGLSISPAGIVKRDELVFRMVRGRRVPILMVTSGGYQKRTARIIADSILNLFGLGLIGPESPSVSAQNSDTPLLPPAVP

[5] = target: T5, Protein deacetylase HDAC6 (Homo sapiens, UniProt Q9UBN7); assay: Inhibition of HDAC6 (unknown origin)
T5 sequence (Q9UBN7 whole entry): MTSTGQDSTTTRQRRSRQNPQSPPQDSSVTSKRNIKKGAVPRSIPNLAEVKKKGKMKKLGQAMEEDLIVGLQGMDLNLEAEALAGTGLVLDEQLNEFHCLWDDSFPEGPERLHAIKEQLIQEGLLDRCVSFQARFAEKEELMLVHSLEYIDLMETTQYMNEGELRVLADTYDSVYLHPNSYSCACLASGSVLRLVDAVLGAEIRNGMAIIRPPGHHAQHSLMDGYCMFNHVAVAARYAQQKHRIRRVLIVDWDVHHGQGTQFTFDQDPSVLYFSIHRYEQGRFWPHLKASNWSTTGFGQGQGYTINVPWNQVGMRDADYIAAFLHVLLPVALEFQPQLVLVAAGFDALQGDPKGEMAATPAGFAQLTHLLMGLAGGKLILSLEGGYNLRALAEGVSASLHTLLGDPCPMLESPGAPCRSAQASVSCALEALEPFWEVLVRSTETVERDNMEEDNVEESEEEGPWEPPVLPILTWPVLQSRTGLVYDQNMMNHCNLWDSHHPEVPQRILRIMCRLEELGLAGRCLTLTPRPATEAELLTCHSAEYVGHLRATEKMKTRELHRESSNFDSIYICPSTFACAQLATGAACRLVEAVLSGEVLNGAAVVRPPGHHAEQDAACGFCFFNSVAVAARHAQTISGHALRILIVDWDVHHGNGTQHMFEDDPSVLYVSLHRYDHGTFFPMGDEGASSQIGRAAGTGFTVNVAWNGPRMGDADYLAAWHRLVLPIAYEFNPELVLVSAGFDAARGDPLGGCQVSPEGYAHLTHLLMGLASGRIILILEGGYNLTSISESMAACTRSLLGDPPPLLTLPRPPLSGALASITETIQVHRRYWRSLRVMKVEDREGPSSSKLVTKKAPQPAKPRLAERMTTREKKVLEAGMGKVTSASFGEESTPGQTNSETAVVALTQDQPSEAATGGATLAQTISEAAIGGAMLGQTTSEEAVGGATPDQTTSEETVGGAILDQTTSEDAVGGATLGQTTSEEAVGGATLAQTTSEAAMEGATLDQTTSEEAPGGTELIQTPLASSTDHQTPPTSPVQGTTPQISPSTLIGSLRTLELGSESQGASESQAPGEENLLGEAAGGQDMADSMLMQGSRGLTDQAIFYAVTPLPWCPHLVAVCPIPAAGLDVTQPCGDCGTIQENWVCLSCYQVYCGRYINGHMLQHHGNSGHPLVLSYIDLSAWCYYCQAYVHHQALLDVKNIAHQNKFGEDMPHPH

HCT-116 = assay: Antiproliferative activity against human HCT-116 cells assessed as reduction in cell viability; type: functional, cell-based
[6] = target: T1, Serine/threonine-protein kinase mTOR; assay: Inhibition of mTOR complexes in human MV4-11 cells assessed as reduction in p-AKT(Ser473) protein level at 300 nM by Western blot analysis relative to control; type: cell-based
A549 = assay: Antiproliferative activity against human A549 cells assessed as reduction in cell viability; type: functional, cell-based

SMILES	IC50 [1]	IC50 (Histone deacetylase 1)	further results
Nc1ccc(-c2nn(CCCCC(=O)NO)c3ncnc(N)c23)cn1	> 1000 nM	> 1000 nM	
Nc1ccc(-c2nn(CCCCCCC(=O)NO)c3ncnc(N)c23)cn1	151 nM	7.3 nM	
Nc1nc2cc(-c3nn(Cc4ccc(C(=O)NO)o4)c4ncnc(N)c34)ccc2o1	18 nM	> 1000 nM	
Nc1nc2cc(-c3nn(CC4CCN(c5ncc(C(=O)NO)cn5)CC4)c4ncnc(N)c34)ccc2o1	0.49 nM	0.91 nM	IC50 (MV4-11): 1740 nM; inhibition [2]: Active; inhibition [3]: Dose-Dependent Effect; inhibition [4]: Dose-Dependent Effect; IC50 (Histone deacetylase 8): 27 nM; IC50 (Histone deacetylase 11): > 1000 nM; IC50 [5]: 86 nM; IC50 (HCT-116): 3850 nM; inhibition [6]: Active; IC50 (A549): 2160 nM
Nc1nc2cc(-c3nn(CC4CCN(C(=O)c5ccc(C(=O)NO)s5)CC4)c4ncnc(N)c34)ccc2o1	0.4 nM	5.9 nM	IC50 (MV4-11): 5210 nM; IC50 (HCT-116): > 10000 nM; IC50 (A549): 5900 nM
Nc1nc2cc(-c3nn(Cc4ccc(C(=O)NO)s4)c4ncnc(N)c34)ccc2o1	27 nM	12 nM	
Nc1nc2cc(-c3nn(Cc4ccc(C(=O)NO)cn4)c4ncnc(N)c34)ccc2o1	25 nM	11 nM	
Nc1nc2cc(-c3nn(CCCCCCC(=O)NO)c4ncnc(N)c34)ccc2o1	1.7 nM	0.78 nM	IC50 (MV4-11): 4130 nM; IC50 (Histone deacetylase 8): 21 nM; IC50 (Histone deacetylase 11): > 1000 nM; IC50 [5]: 1.5 nM; IC50 (HCT-116): 3780 nM; IC50 (A549): 2860 nM
Nc1ncnc2c1c(-c1cnc3ccccc3c1)nn2CCCCCCC(=O)NO	619 nM	4.1 nM	

Continued, in another order:

IC50 [1]	IC50 (Histone deacetylase 1)	SMILES	further results
18 nM	5 nM	Nc1nc2cc(-c3nn(Cc4ccc(C(=O)NO)cc4)c4ncnc(N)c34)ccc2o1	
> 1000 nM	11 nM	Nc1ncc(-c2nn(CCCCCCC(=O)NO)c3ncnc(N)c23)cn1	
1.9 nM	65 nM	Nc1nc2cc(-c3nn(CC4CCN(C(=O)CCCCC(=O)NO)CC4)c4ncnc(N)c34)ccc2o1	
3.76 nM	83 nM	Nc1nc2cc(-c3nn(CCCCC(=O)NO)c4ncnc(N)c34)ccc2o1	
> 1000 nM	479 nM	Nc1ncc(-c2nn(CCCCC(=O)NO)c3ncnc(N)c23)cn1	
677 nM	65 nM	Nc1ncnc2c1c(-c1cnc3ccccc3c1)nn2CCCCC(=O)NO	
0.84 nM	12 nM	Nc1nc2cc(-c3nn(CC4CCN(C(=O)c5ccc(C(=O)NO)cc5)CC4)c4ncnc(N)c34)ccc2o1	
